Results reported in PubChem BioAssay AID248 (DTP/NCI, 2004).
Toxic doses and inconclusive results are not listed.

Tested on: L1210 leukemia ip in BDF1 mice, survival T/C
Test: NCI In Vivo Anticancer Drug Screen. Data for tumor model L1210 Leukemia (intraperitoneal) in B6D2F1 (BDF1) mice
Conditions: endpoint: mean survival time, higher = longer survival
Method in brief: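 In this screen, tumor-bearing mice given compound are compared to those given vehicle, and their survival values are reported as a treated-to-control quotient.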

[1] = dose: 100.0 mg/kg/injection, schedule: Q01DX001 (ip), vehicle: Klucel (hydroxypropylcellulose) (HPC)
[2] = dose: 100.0 mg/kg/injection, schedule: Q04DX003 (ip), vehicle: Klucel (hydroxypropylcellulose) (HPC)
[3] = dose: 200.0 mg/kg/injection, schedule: Q04DX003 (ip), vehicle: Klucel (hydroxypropylcellulose) (HPC)
[4] = dose: 400.0 mg/kg/injection, schedule: Q04DX003 (ip), vehicle: Klucel (hydroxypropylcellulose) (HPC)
[5] = dose: 100.0 mg/kg/injection, schedule: Q01DX001 (ip), vehicle: saline
[6] = dose: 200.0 mg/kg/injection, schedule: Q01DX001 (ip), vehicle: saline
[7] = dose: 400.0 mg/kg/injection, schedule: Q01DX001 (ip), vehicle: saline
[8] = dose: 50.0 mg/kg/injection, schedule: Q04DX003 (ip), vehicle: saline

`N=c1c(C(=O)O)cccn1O` was tested, and the T/C (dose: 87.5 mg/kg/injection, schedule: Q01DX009 (ip), vehicle: Klucel (hydroxypropylcellulose) (HPC)) was 105 % of control, the T/C (dose: 175.0 mg/kg/injection, schedule: Q01DX009 (ip), vehicle: Klucel (hydroxypropylcellulose) (HPC)) was 94 % of control and the T/C (dose: 350.0 mg/kg/injection, schedule: Q01DX009 (ip), vehicle: Klucel (hydroxypropylcellulose) (HPC)) was 95 % of control.

With `O=NN(CCCl)C(=O)Nc1cccc([N+](=O)[O-])c1` the T/C (dose: 12.0 mg/kg/injection, schedule: Q01DX001 (ip), vehicle: carboxymethylcellulose (CMC)) was 152 % of control, the T/C (dose: 18.0 mg/kg/injection, schedule: Q01DX001 (ip), vehicle: carboxymethylcellulose (CMC)) was 156 % of control and the T/C (dose: 26.0 mg/kg/injection, schedule: Q01DX001 (ip), vehicle: carboxymethylcellulose (CMC)) was 176 % of control. The T/C (dose: 40.0 mg/kg/injection, schedule: Q01DX001 (ip), vehicle: carboxymethylcellulose (CMC)) was 174 % of control and the T/C (dose: 60.0 mg/kg/injection, schedule: Q01DX001 (ip), vehicle: carboxymethylcellulose (CMC)) was 91 % of control.

With `Cc1cc(C)c(Sc2ccc([N+](=O)[O-])c3ccccc23)c(C)c1` the T/C [1] was 102 % of control, the T/C [2] was 94 % of control and the T/C (dose: 200.0 mg/kg/injection, schedule: Q01DX001 (ip), vehicle: Klucel (hydroxypropylcellulose) (HPC)) was 98 % of control. The T/C [3] was 100 % of control, the T/C (dose: 400.0 mg/kg/injection, schedule: Q01DX001 (ip), vehicle: Klucel (hydroxypropylcellulose) (HPC)) was 95 % of control and the T/C [4] was 90 % of control.

For `CC(=O)OC1CC2C(C)(C)C(=O)C=CC2(C)C2CCC3(C)C(c4ccoc4)OC(=O)C4OC43C12C` (configuration not stated), the T/C (dose: 100.0 mg/kg/injection, schedule: Q01DX001 (sc), vehicle: steriod suspending solution) was 104 % of control, the T/C (dose: 200.0 mg/kg/injection, schedule: Q01DX001 (sc), vehicle: steriod suspending solution) was 104 % of control and the T/C (dose: 400.0 mg/kg/injection, schedule: Q01DX001 (sc), vehicle: steriod suspending solution) was 92 % of control.

With `C=CCCc1c(N)nc(N)[nH]c1=O` the T/C (dose: 25.0 mg/kg/injection, schedule: Q01DX001 (ip), vehicle: Klucel (hydroxypropylcellulose) (HPC)) was 100 % of control, the T/C (dose: 50.0 mg/kg/injection, schedule: Q01DX001 (ip), vehicle: Klucel (hydroxypropylcellulose) (HPC)) was 100 % of control and the T/C [1] was 96 % of control.

In the case of `Nc1ccc(N=Nc2ccc(S(N)(=O)=O)cc2)cn1`, the T/C (dose: 50.0 mg/kg/injection, schedule: Q01DX001 (ip), vehicle: other) is reported as 97 % of control, the T/C (dose: 100.0 mg/kg/injection, schedule: Q01DX001 (ip), vehicle: other) is reported as 94 % of control and the T/C (dose: 200.0 mg/kg/injection, schedule: Q01DX001 (ip), vehicle: other) is reported as 103 % of control. For the same compound, the T/C (dose: 400.0 mg/kg/injection, schedule: Q01DX001 (ip), vehicle: other) was 100 % of control.

For `CC(C)=CN1CC2CCCC(CC2)C1`, the T/C [2] was 98 % of control and the T/C [3] was 101 % of control.

`C[N+]1(CCCl)CCOCC1` was tested, and the T/C (dose: 20.0 mg/kg/injection, schedule: Q01DX009 (ip), vehicle: Klucel (hydroxypropylcellulose) (HPC)) was 97 % of control and the T/C (dose: 40.0 mg/kg/injection, schedule: Q01DX009 (ip), vehicle: Klucel (hydroxypropylcellulose) (HPC)) was 102 % of control.

`Cc1cc(Cl)c(OCC(=O)O)c(Cl)c1` was tested, and the T/C [5] was 92 % of control, the T/C [6] was 92 % of control and the T/C [7] was 94 % of control.

In the case of `C=COC(=O)NCC(=O)O`, the T/C [5] is reported as 91 % of control, the T/C [6] is reported as 97 % of control and the T/C [7] is reported as 92 % of control.

For `CCCCCCCCCCCCCCCCCC(=O)CS(C)=O` (configuration not stated), the T/C [2] was 94 % of control, the T/C [3] was 91 % of control and the T/C [4] was 96 % of control.

`CCCCCCCCCCCC[N+](CC)(CC)CC(=O)O` was tested, and the T/C (dose: 12.5 mg/kg/injection, schedule: Q01DX009 (ip), vehicle: saline) was 88 % of control, the T/C (dose: 25.0 mg/kg/injection, schedule: Q01DX009 (ip), vehicle: saline) was 97 % of control and the T/C (dose: 50.0 mg/kg/injection, schedule: Q01DX009 (ip), vehicle: saline) was 104 % of control. The T/C [8] was 111 % of control, the T/C [5] was 93 % of control and the T/C [6] was 98 % of control.

With `CN(C)C(=S)[S][Pb]([S]C(=S)N(C)C)([c]1ccccc1)[c]1ccccc1` the T/C (dose: 100.0 mg/kg/injection, schedule: Q01DX001 (ip), vehicle: steriod suspending solution) was 114 % of control, the T/C (dose: 200.0 mg/kg/injection, schedule: Q01DX001 (ip), vehicle: steriod suspending solution) was 111 % of control and the T/C (dose: 400.0 mg/kg/injection, schedule: Q01DX001 (ip), vehicle: steriod suspending solution) was 109 % of control.

For `O=C(Nc1cc(C(F)(F)F)ccc1Cl)c1cccc(C(=O)Nc2cc(C(F)(F)F)ccc2Cl)c1`, the T/C (dose: 12.5 mg/kg/injection, schedule: Q04DX003 (ip), vehicle: saline with Tween-80) was 93 % of control, the T/C (dose: 25.0 mg/kg/injection, schedule: Q04DX003 (ip), vehicle: saline with Tween-80) was 96 % of control and the T/C (dose: 50.0 mg/kg/injection, schedule: Q04DX003 (ip), vehicle: saline with Tween-80) was 95 % of control. The T/C (dose: 200.0 mg/kg/injection, schedule: Q04DX003 (ip), vehicle: saline with Tween-80) was 87 % of control.

`CC(C)(N)COC(=O)c1ccccc1C(=O)O` was tested, and the T/C [5] was 91 % of control, the T/C [6] was 96 % of control and the T/C [7] was 94 % of control.

For `COc1ccc(C)c(CN(C)C)c1`, the T/C (dose: 50.0 mg/kg/injection, schedule: Q01DX001 (ip), vehicle: saline) was 107 % of control and the T/C [5] was 101 % of control.

`CCC/C=C(\C)C(C)(C#N)C(=O)OCC` (configuration not stated) was tested, and the T/C (dose: 75.0 mg/kg/injection, schedule: Q01DX001 (ip), vehicle: other) was 112 % of control, the T/C (dose: 150.0 mg/kg/injection, schedule: Q01DX001 (ip), vehicle: other) was 98 % of control and the T/C (dose: 300.0 mg/kg/injection, schedule: Q01DX001 (ip), vehicle: other) was 110 % of control.

With `CC1(C)OC2C(CNCCCl)OC(OCc3ccccc3)C2O1` (configuration not stated) the T/C [8] was 96 % of control and the T/C (dose: 100.0 mg/kg/injection, schedule: Q04DX003 (ip), vehicle: saline) was 96 % of control.

In the case of `O=C1CSC(=S)N1/N=C/c1c[nH]c2ccc(Br)cc12`, the T/C (dose: 75.0 mg/kg/injection, schedule: Q01DX001 (ip), vehicle: carboxymethylcellulose (CMC)) is reported as 100 % of control and the T/C (dose: 150.0 mg/kg/injection, schedule: Q01DX001 (ip), vehicle: carboxymethylcellulose (CMC)) is reported as 97 % of control.
